Patent US3972883A, “1,6-Dimethyl-8β-[2' or 3'-pyrroyloxyethyl or substituted pyrroyloxyethyl]-10α-methoxyergolene compounds” (Societa Farmaceutici Italia S.p.A., priority 1973, dated 1976)

How the values were obtained:
[1] = system: contractions caused by Adrenaline in seminal small bladder of Guinea-pig; assay: Adrenolytic activity "in vitro": inhibition of contractions induced by Adrenaline in isolated seminal small bladder; conditions: Tyrode, 38°C, 3 minutes of contact, 1 mcg/ml Adrenaline
Procedure: The adrenolytic activity of the new esters has been studied in comparison with that of Nicergoline [1,6-dimethyl-8β-(5'-bromonicotinoyloxymethyl)-10α-methoxyergoline] and of dihydroergotamine. The activity "in vitro" has been determined employing seminal small bladder of Guinea-pig immersed in Tyrode liquid wherein oxygen and 5% carbon dioxide are bubbled.
The bath temperature is maintained constant at 38°C. The contractions induced by Adrenaline are registered on a chimograph by means of an isotonic lever. The activity of the drug under examination is expressed as the concentration in mcg/ml able, after 3 minutes of contact, to inhibit 50% of the contractions caused by 1 mcg/ml of Adrenaline (IC50).

[2] = system: lethal effects of Adrenaline; assay: Adrenolytic activity "in vivo": protection against the lethal effects of Adrenaline (Luduena et al.); conditions: Rattus norvegicus, po; rats, os, 60 minutes before 200 mcg/Kg Adrenaline endovenous; read-out: ID50 (dose protecting 50% of the animals from the lethal effects of Adrenaline)
Procedure: (§1) For the adrenolytic activity "in vivo" the method of Luduena et al. (Arch. int. Pharmacodyn., 122, 111, 1959) has been used, based on the evaluation of the protective action of the adrenolytic compounds against the lethal effects of Adrenaline.
(§2) The drugs under examination are administered by the endovenous route dissolved in water, and by the oral route they are dissolved or suspended in 5% arabic gum, respectively at 5 and 60 minutes before a fixed dose of 200 mcg/Kg of Adrenaline by the endovenous route.
(§3) Always 10 rats have been employed per group.
(§4) The activity of the drug is expressed as the dose protecting 50% of the animals from the lethal effects of Adrenaline administered by the endovenous route (ED50).

[3] = Toxicity: LD50 by the oral route, 7 days follow-up; conditions: mouse, in vivo, mice, os, followed for 7 days
Procedure: (§5) In order to evaluate the toxicity of the drugs under examination, increasing doses are administered to groups of 5-10 mice which are then followed for a period of 7 days.
(§6) For administration by the oral route, the compounds are dissolved or suspended, according to the solubility, in 5% arabic gum. The LD50 expresses the dose of drug which causes the death of 50% of the animals.

[4] = Therapeutic index (LD50/ID50), oral; conditions: in vivo, os, LD50 in mice, ID50 in rats
Procedure: as §1, §2, §3, §4, §5, §6

[5] = Pharmacological activity of intermediates, general statement

## CN1C[C@H](C(=O)N[C@]2(C)O[C@@]3(O)[C@@H]4CCCN4C(=O)[C@H](Cc4ccccc4)N3C2=O)C[C@@H]2c3cccc4[nH]cc(c34)C[C@H]21 [Dihydroergotamine, reference compound]
[1]
  IC50 (concentration inhibiting 50% of the contractions caused by 1 mcg/ml of Adrenaline): 15 ng/mL
[2]
  ED50: 15 mg/kg

## CCn1cccc1C(=O)OCC[C@H]1CN(C)[C@@H]2Cc3cn(C)c4cccc(c34)[C@@]2(OC)C1 [1,6-Dimethyl-8β-[1'-ethyl-2'-pyrroyloxyethyl]-10α-methoxyergoline]
[2]
  ED50: 0.025 mg/kg
[3]
  LD50 at 168 h: 180 mg/kg
[4]
  selectivity ratio: 5200

## CO[C@]12C[C@@H](CCOC(=O)c3c(C)cc(C)n3C)CN(C)[C@@H]1Cc1cn(C)c3cccc2c13 [1,6-Dimethyl-8β-[1',3',5'-trimethyl-2'-pyrroyloxyethyl]-10α-methoxyergoline]
[2]
  ED50: 0.1 mg/kg
[3]
  LD50 at 168 h: 100 mg/kg
[4]
  selectivity ratio: 1300

## CO[C@]12C[C@@H](CCOC(=O)c3cc[nH]c3C)CN(C)[C@@H]1Cc1cn(C)c3cccc2c13 [1,6-Dimethyl-8β-[2'-methyl-3'-pyrroyloxy-ethyl]-10α-methoxyergoline]
[1]
  IC50 (concentration inhibiting 50% of the contractions caused by 1 mcg/ml of Adrenaline): 1 ng/mL
[2]
  ED50: 0.1 mg/kg
[3]
  LD50 at 168 h: 100 mg/kg
[4]
  selectivity ratio: 1300

## CO[C@]12C[C@@H](CCO)CN(C)[C@@H]1Cc1cn(C)c3cccc2c13 [(V), 1,6-Dimethyl-8β-hydroxyethyl-10α-methoxyergoline]
[5]
  pharmacological activity: slight pharmacological activity

## CO[C@]12C[C@@H](COC(=O)c3cncc(Br)c3)CN(C)[C@@H]1Cc1cn(C)c3cccc2c13 [Nicergoline, 1,6-dimethyl-8β-(5'-bromonicotinoyloxymethyl)-10α-methoxyergoline, reference compound]
[1]
  IC50 (concentration inhibiting 50% of the contractions caused by 1 mcg/ml of Adrenaline): 1 ng/mL
[2]
  ED50: 7 mg/kg
[3]
  LD50 at 168 h: 632 mg/kg
[4]
  selectivity ratio: 90

## CO[C@]12C[C@@H](CCOC(=O)c3[nH]c(C)cc3C)CN(C)[C@@H]1Cc1cn(C)c3cccc2c13 [1,6-Dimethyl-8β-[3',5'-dimethyl-2'-pyrroyloxyethyl]-10α-methoxyergoline]
[2]
  ED50: 0.12 mg/kg
[3]
  LD50 at 168 h: 300 mg/kg
[4]
  selectivity ratio: 3750

## CO[C@]12C[C@@H](CCOC(=O)c3ccc[nH]3)CN(C)[C@@H]1Cc1cn(C)c3cccc2c13 [1,6-Dimethyl-8β-[2'-pyrroyloxyethyl]-10α-methoxyergoline]
[2]
  ED50: 0.06 mg/kg
[3]
  LD50 at 168 h: 450 mg/kg
[4]
  selectivity ratio: 6600
